Laboratory results as given in PMC8899577, “Targeting the anti-apoptotic Bcl-2 family proteins: machine learning virtual screening and biological evaluation of new small molecules” (Theranostics, 2022).

How the values were obtained:
Bcl-2 = Bcl-2 (Homo sapiens, UniProt P10415); assay: SPR binding to immobilized Bcl-2; details: for Kd: SPR, 25 °C, 2-site fit, highest affinity site
Method: (§1) FastStep experiments were performed with a SensiQ Pioneer apparatus. Bcl-2 immobilization on COOH5 sensorchips was carried out essentially as previously reported, [40]. All the experiments were carried out at 25 °C in degassed HEPES 20 mM, pH 7.4, NaCl 150 mM, 0.005% surfactant P20 + 2% DMSO (HBSP2%D). […] Each sensorgram is the average of at least three experiments. The decrease in Response Units (RU) after 165 s indicates analyte dissociation from the immobilized Bcl-2 upon HSBP2%D buffer injection. Control SPR experiments were carried out measuring sensorgrams on Bcl-xL and Mcl-1 (ligands) immobilized on COOH5 sensorchips as previously reported at 25 °C in degassed HBSP2%D buffer. […] Each sensorgram is the average of at least three experiments. The decrease in RU after 180 s indicates analyte dissociation from the immobilized ligands upon HSBP2%D buffer injection. Kinetic evaluation of the sensorgrams was carried out using the Qdat 4.0 program; best fittings were obtained with 2 sites and indicated in red (reported KD values refer to dissociation constants of the highest affinity site).
Figure 2 SPR analysis of the interaction between putative inhibitors of Bcl-2 anti-apoptotic members and Bcl-2 protein. Bcl-2 was immobilized via amine coupling onto a COOH5 sensorchip; Bcl-2 family inhibitors (analytes) were injected at a flow rate = 100 μL/min, at the following concentrations. 0-30 s: 0.625 μM; 31-60 s: 1.25 μM; 61-90 s: 2.5 μM; 91-120 s: 5 μM; 121-150 s: 10 μM; 151-165 s: 20 μM. The increase in Response Units (RU) relative to baseline indicates complex formation between the immobilized Bcl-2 ligand and the analytes upon Bcl-2 family inhibitors injection. The decrease in RU after 165 s indicates analyte dissociation from the immobilized Bcl-2 upon buffer injection. Full fittings with 2 sites are indicated in red. The fitted KD values are the following.

Mcl-1 = Mcl-1 (Homo sapiens, UniProt Q07820); assay: SPR binding to immobilized Mcl-1; details: 25 °C, 2-site fit, highest affinity site
Chain of Mcl-1 (Q07820 whole entry): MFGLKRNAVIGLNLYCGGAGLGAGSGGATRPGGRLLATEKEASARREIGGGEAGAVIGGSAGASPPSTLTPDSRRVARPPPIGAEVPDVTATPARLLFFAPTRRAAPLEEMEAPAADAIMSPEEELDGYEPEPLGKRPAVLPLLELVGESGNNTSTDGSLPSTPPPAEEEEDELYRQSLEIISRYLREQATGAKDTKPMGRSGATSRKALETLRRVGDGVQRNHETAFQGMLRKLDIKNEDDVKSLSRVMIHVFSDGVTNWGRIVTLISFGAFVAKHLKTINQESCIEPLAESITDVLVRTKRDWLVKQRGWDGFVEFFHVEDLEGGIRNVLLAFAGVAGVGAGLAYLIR
Method: as §1
Figure 3 SPR analysis of the interaction between IS20 or IS21 and Bcl-xL and Mcl-1 proteins. SPR experiments were carried out measuring sensorgrams on Bcl-xL and Mcl-1 (ligands) immobilized on COOH5 sensorchips at 25 °C in degassed HBSP2%D buffer. IS20 and IS21 (analytes) were injected at a flow rate = 30 μL/min, at the following concentrations: 0.3 μM (only for Mcl-1 experiments); 1 μM; 3 μM; 10 μM; 30 μM. Each sensorgram is the average of at least three experiments. The decrease in RU (Response Units) after 180 s indicates analyte dissociation from the immobilized ligands upon HSBP2%D buffer injection. The fitted KD values for Bcl-xL are the following. IS20: 0.42 ± 0.09 μM and IS21: 0.51 ± 0.17 μM. The fitted KD values for Mcl-1are the following. IS20: 3.9 ± 0.30 μM and IS21: 1.16 ± 0.14 μM;

HL60 cells = assay: Cell viability by CellTiterGlo, HL60; assay type: cell-based; details: Homo sapiens, HL-60; 24 h, 5 to 50 µM
Method: The effect of compounds on cell viability was performed by measuring 3-[4,5-dimethylthiazol-2-yl]-2,5-diphenyltetrazolium bromide inner salt (MTT, Sigma-Aldrich) dye absorbance (solid tumor cells) or by quantization of ATP present in metabolically active cells using CellTiter-Glo® Luminescent (Promega, Fitchburg, Wisconsin, USA) (hematologic cells) following manifacturer's protocol. To evaluate the cell colony-forming ability, cell suspension from different samples was seeded into 60-mm Petri dishes. After 10 days, colonies were stained with 2% methylene blue in 95% ethanol and counted (1 colony > 50 cells). The surviving fractions were calculated as the ratio of absolute survival of the treated sample/survival of DMSO-treated control sample.
Figure 1 Cytotoxic screening of putative inhibitors of Bcl-2 anti-apoptotic proteins. (A) Flow cytometric quantification of propidium iodide exclusion assay in HL60 cells treated with the 49 putative Bcl-2 family inhibitors (50 μM, 72 h). (B) Analysis of cell viability by CellTiterGlo assay in HL60 cells treated for 24 h with concentrations ranging from 5 to 50 μM of the indicated compounds. (C-D) Analysis of cell viability by MTT assay in (C) M14 and (D) Sbcl2 melanoma cell lines treated for 72 h with concentrations ranging from 5 to 50 μM of the indicated compounds. […]

HCT116 cells = assay: Western blot of PARP1 cleavage, HCT116; assay type: cell-based, Human; details: 72 h
Method: Western blot analyses of total protein extracts were performed as previously described. Immunodetection was performed using antibodies directed to poly (ADP-ribose) polymerase (PARP; BD Biosciences San Diego, CA, USA), LC3B (Cell Signaling Technology, Danvers, MA), HSP72/73 (Calbiochem, EMD Biosciences, La Jolla, CA), Bcl-2 (SC-509, Santa Cruz Biotechnology Inc, Dallas, TX, USA), Bcl-xL (SC-271121, Santa Cruz Biotechnology Inc), Mcl-1 (SC-12756, Santa Cruz Biotechnology Inc) α-tubulin (Santa Cruz Biotechnology Inc) actin (Sigma-Aldrich, St. Louis, Missouri, USA). Anti-rabbit or anti-mouse immunoglobulin G-horseradish peroxidase-conjugated antibodies (Amersham Biosciences, Freiburg, Germany) were used as secondary antibody. Images were acquired by Image Lab Software (Bio-Rad, Hercules, CA, USA), using a ChemiDoc System instrument (Bio-Rad). […]
Figure 5 Analysis of apoptosis induction by IS20 and IS21 in leukemia, melanoma and NSCLC cells. […] (G) Flow cytometric quantification of cells in the subG1 peak of cell cycle distribution by propidium iodide staining in HL60 cell line treated with IS20 or IS21 (20 μM for 24 h) and in M14, H1299 and MDA-MB-231 cell lines treated with IS20 or IS21 (20 μM for 72 h). Data are reported as mean ± SD of three independent experiments. p-values were calculated between control (Ctrl) and treated cells, * p < 0.05. […]

Chain of Bcl-2 (P10415 whole entry): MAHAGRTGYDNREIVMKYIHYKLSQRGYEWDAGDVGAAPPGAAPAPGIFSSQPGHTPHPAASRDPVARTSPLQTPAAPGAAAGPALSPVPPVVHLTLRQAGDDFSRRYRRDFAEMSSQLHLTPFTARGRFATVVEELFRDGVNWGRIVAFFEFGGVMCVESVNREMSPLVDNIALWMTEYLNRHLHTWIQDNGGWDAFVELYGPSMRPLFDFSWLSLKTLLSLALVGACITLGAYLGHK

Row | Compound | Kd (Bcl-2) [nM] | selectivity for Bcl-2 than for Mcl-1 (Bcl-2; selectivity index from KD) [times] | Kd (Mcl-1) [nM] | IC50 (HL60 cells) [nM] | PARP1 cleavage, HCT116 (HCT116 cells) | selectivity for Bcl-2 than for Bcl-xL (Bcl-2; selectivity index from KD)
1 | CCCCOc1ccc(C2/C(=C(\O)c3ccc4c(c3)CC(C)O4)C(=O)C(=O)N2c2nnc(SCc3ccc(Cl)cc3)s2)cc1OCC (centres unmarked) [IS20] | 320 ± 90 | 12 | 3900 ± 300 | 10900 to 34000 | not evident | 
2 | CCCCCOc1ccc(C2/C(=C(\O)c3ccc4c(c3)CC(C)O4)C(=O)C(=O)N2c2nnc(SCc3ccc(Cl)cc3)s2)cc1OCC (centres unmarked) [IS21] | 190 ± 70 | ~6 | 1160 ± 140 | 10900 to 34000 | not evident | about 2.7 times
